US20250206723A1, “METHODS AND PROCESSES FOR THE PREPARATION OF MCT4 INHIBITORS” (Vettore, LLC, priority 2022, published 2025)
Where a name gives a salt, the structure may show the parent alone.

How the values were obtained:
MCT4 = MCT4 (Homo sapiens, UniProt O15427); settings: affinity of MCT4 for lactate; cited from earlier work
[1] = Dog pharmacokinetics, oral gavage of suspension (0.5% methylcellulose in saline); type: in vivo; settings: male beagle dogs; for AUC(0-inf) / AUC(0-t): dog, plasma, oral gavage suspension, mean
Method: In a follow-up study, the pharmacokinetics of tris salt of the compound of Formula I were investigated via oral gavage of a 0.5% methylcellulose in saline formulation. Two groups of animals were tested. In Group 1, three male beagle dogs were administered a single dose of 3 mg/kg tris salt. In Group 2, three male beagle dogs were administered a single dose of 30 mg/kg tris salt. Plasma was collected pre-dose, and at 0.5, 1, 2, 4, 8, 12 and 24 hours post-dose via puncture of peripheral veins.
(§1) LC MS-MS Analysis. Liquid Chromatography with tandem mass spectrometry was used to determine plasma concentrations of the compound of Formula I free acid and the tris salt in plasma samples collected at prescribed time points. Instrumentation included YMC-Triart C18, S-5 μm (50×2.1 mm) HPLC column, liquid chromatograph Shimadzu LC-30AD with communications bus module CBM-20A and Auto SIL-20AC HT; and a Triple Quad 5500 LC/MS/MS instrument. Tolbutamide was used as an internal standard.

[2] = Rat pharmacokinetics, oral gavage, plasma by LC-MS/MS; type: in vivo, Sprague-Dawley rats
[3] = Dog pharmacokinetics, oral powder in capsule; type: in vivo, beagle dogs; settings: for AUCinf / AUClast: single 3 mg/kg, powder in capsule, mean, 3 mg/kg, in ng·h/mL
Method: Groups, Dosing, and Collection. The pharmacokinetics of the free acid and the tris salt of the compound of Formula I administered by oral capsules was assessed in dogs. Three male beagle dogs were administered a single dose of 3 mg/kg free acid on Day 1 of the study, and a single dose of 3 mg/kg tris salt on Day 8 of the study. Plasma was collected pre-dose, and at 0.5, 1, 2, 4, 8, 12 and 24 hours post-dose via puncture of peripheral veins.
as §1

[4] = male beagle dogs, listed as Salt
[5] = rat male, 20 mg/kg free acid, oral gavage, mean

Sequence of MCT4 (O15427 whole entry): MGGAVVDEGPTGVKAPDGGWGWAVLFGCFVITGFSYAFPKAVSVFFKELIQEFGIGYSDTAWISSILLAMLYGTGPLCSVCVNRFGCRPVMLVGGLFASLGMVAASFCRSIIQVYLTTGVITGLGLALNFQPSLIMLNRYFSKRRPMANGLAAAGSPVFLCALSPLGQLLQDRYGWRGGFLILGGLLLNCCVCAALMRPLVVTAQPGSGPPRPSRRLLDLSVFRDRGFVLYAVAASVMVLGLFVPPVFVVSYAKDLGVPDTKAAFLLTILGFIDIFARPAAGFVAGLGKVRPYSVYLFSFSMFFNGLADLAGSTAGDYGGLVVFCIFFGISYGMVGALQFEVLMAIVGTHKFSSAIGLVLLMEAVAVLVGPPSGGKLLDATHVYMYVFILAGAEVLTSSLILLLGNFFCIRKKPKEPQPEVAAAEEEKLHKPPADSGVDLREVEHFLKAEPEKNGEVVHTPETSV

CC(O)C(=O)O (stereo not shown) [lactate]
Km (MCT4): 28 mM

CC(C)(OCc1cc(-c2cccc(OC3CCC3)c2)n(-c2ccccc2N2CCC2)n1)C(=O)O [Tris Salt]
AUC(0-inf) ([1]; 3 mg/kg): 5200 ng·h/mL | AUC(0-t) ([1]; 3 mg/kg): 5080 ng·h/mL | AUC(0-inf) ([1]; 30 mg/kg): 56800 ng·h/mL | AUC(0-t) ([1]; 30 mg/kg): 41300 ng·h/mL | clinical symptoms ([1]; single 3 or 30 mg/kg oral gavage): No abnormal clinical symptoms | AUC—% Extrap_obs ([2]; rat female, 25 mg/kg tris salt, oral gavage, mean): 9% | AUC—% Extrap_obs ([2]; rat female, 75 mg/kg tris salt, oral gavage, mean): 18.5% | AUC—% Extrap_obs ([2]; rat female, 250 mg/kg tris salt, oral gavage, mean): 59.9% | AUC—% Extrap_obs ([2]; rat male, 25 mg/kg tris salt, oral gavage, mean): 1.28% | AUC—% Extrap_obs ([2]; rat male, 75 mg/kg tris salt, oral gavage, mean): 0.473% | AUC—% Extrap_obs ([2]; rat male, 250 mg/kg tris salt, oral gavage, mean): 26.5% | total drug exposure across time (AUClast and AUCInf) versus free acid groups ([2]; rats, male and female): higher | Maximum exposure levels (Cmax) versus free acid groups ([2]; rats, male and female, except females at 20/25 mg/kg): higher | total drug exposure across time (AUClast and AUCInf) compared to the free acid ([3]; dogs, powder in capsule and suspension formulations): higher | AUCinf [3, 4]: 4092 | AUClast [3, 4]: 3924

CC(C)(OCc1cc(-c2cccc(OC3CCC3)c2)n(-c2ccccc2N2CCC2)n1)C(=O)O [Free Acid, 2-([1-[2-(azetidin-1-yl)phenyl]-5-(3-cyclobutoxyphenyl)-1H-pyrazol-3-yl]methoxy)-2-methylpropanoic acid]
AUC—% Extrap_obs ([2]; rat female, 20 mg/kg free acid, oral gavage, mean): 9.9% | AUC—% Extrap_obs ([2]; rat female, 60 mg/kg free acid, oral gavage, mean): 16.7% | AUC—% Extrap_obs ([2]; rat female, 200 mg/kg free acid, oral gavage, mean): 22.1% | AUClast/D [2, 5]: 8332 ng·h/mL | AUC—% Extrap_obs [2, 5]: 0.61% | AUC—% Extrap_obs ([2]; rat male, 60 mg/kg free acid, oral gavage, mean): 0.477% | AUC—% Extrap_obs ([2]; rat male, 200 mg/kg free acid, oral gavage, mean): 0.704% | clinical symptoms ([2]; rats, single oral gavage, all dose groups): No abnormal clinical symptoms | clinical symptoms ([3]; male beagle dogs, single 3 mg/kg oral capsule): No abnormal clinical symptoms | AUCinf ([3]; male beagle dogs): 1265 | AUClast ([3]; male beagle dogs): 1215
